{
  "source": "patent US9180152B2",
  "about": "“Method for treating psoriasis” (NIKKEN SOHONSHA CORPORATION, priority 2009, dated 2015)",
  "origin": "cited, not measured here",
  "tested_on": "Psoriasis",
  "conditions": "well-tolerated oral doses",
  "data": [
    {"smiles": "CC1=C(/C=C/C(C)=C\\C=C\\C(C)=C\\C(=O)O)C(C)(C)CCC1", "note": "[9-cis-retinoic acid]", "values": [
      {"measurement": "response of psoriasis", "value": "did not respond"}
    ]}
  ]
}
